Test results from patent US9045434B1, “Compositions and methods of treatment for myocilin glaucoma by selectively inhibiting GRP94” (University of South Florida, priority 2012, dated 2015).

Experiments:
[1] = system: Hsp90α/β client proteins Raf and Akt; assay: Western blot of Hsp90α/β client proteins in HEK293 cell lysates; format: cell-based, human
Method: (§1) GRP94 and BiP were detected by the anti-KDEL antibody. *, an unknown KDEL-containing band. […] Cell survival was measured by XTT assay (n=4).
In contrast, loss of functional Hsp90α or Hsp90β results in cell death. […] To support these findings, western blot analyses of Hsp90α/β client proteins were performed from HEK293 cell lysates. Prototypical pan-Hsp90 inhibitors induce proteasome-mediated degradation of Hsp90α/β client substrates.
Cells were harvested in cold PBS and lysed in mammalian protein extraction reagent (MPER, Pierce) and protease inhibitors (Roche) on ice for 1 h. Lysates were clarified at 14,000 g for 10 min at 4° C. Protein concentrations were determined with the Pierce BCA assay kit per the manufacturer's instructions. Equal amounts of protein (10 μg) were electrophoresed under reducing conditions, transferred to a PVDF membrane, and immunoblotted with the corresponding specific antibodies. Membranes were incubated with an appropriate horseradish peroxidase-labeled secondary anti-body, developed with chemiluminescent substrate, and visualized.

BiP expression = assay: Induction of BiP expression, immunoblot
Text: Grp94, BiP and PDIA6 were detected with the monoclonal anti-KDEL antibody, AKT by rabbit anti-serum. 14-3-3 served as loading control. Numbers below BiP, Grp94, and AKT bands are the relative expression levels, determined by densitometry.
The inventors therefore assessed the ability of 2 to cause BiP up-regulation, in comparison to pan-Hsp90 inhibitors.

IGF-II secretion = IGF-II secretion by serum-starved C2C12 cells, ELISA; format: cell-based; conditions: 10 μM, 48 h
Text: IGF-II is a second well-defined Grp94-dependent client protein and active Grp94 is required for the secretion of IGF-II (Ostrovsky et al., 2009). […] (Wanderling, S. et al. GRP94 Is Essential for Mesoderm Induction and Muscle Development Because It Regulates Insulin-like Growth Factor Secretion. Mol. Biol. Cell 18, 3764-3775, (2007); Ostrovsky, O., Eletto, D., Makarewich, C., Barton, E. R. & Argon, Y. Glucose regulated protein 94 is required for muscle differentiation through its control of the autocrine production of insulin-like growth factors. BBA—Mol. Cell Res. 1803, 333-341, (2010); Ostrovsky, O., Ahmed, N. T. & Argon, Y. The Chaperone Activity of GRP94 Toward Insulin-like Growth Factor II Is Necessary for the Stress Response to Serum Deprivation. Mol. Biol. Cell 20, 1855-1864, (2009)). Accordingly, serum-starved C2C12 cells were treated with increasing concentrations of compound 2 and the secretion of IGF-II was measured by ELISA (FIG. 5A).
For IGF-II ELISA, plates were coated with anti-IGF-II (MAb 792, R&D Systems) and incubated with the test cell media. The bound IGF-II was detected with a biotinylated anti-IGF-II antibody (BAF792, R&D Systems) and developed with streptavidin-HRP (R&D Systems) according to the manufacturer's recommended procedure. […] Data were acquired in duplicate on a microtiter-plate reader (Dynatech Laboratories, Chantilly, Va.) at 450 nm.

Drosophila larvae (Gp93) = assay: Drosophila larval growth on supplemented fly food; format: in vivo; conditions: for effect on Drosophila larval growth: dietary, 250 μg/ml to 1 mg/ml in fly food, first instar w1118 larvae
Text: (Maynard, J. C. et al. Gp93, the Drosophila GRP94 ortholog, is required for gut epithelial homeostasis and nutrient assimilation-coupled growth control. Dev. Biol. 339, 295-306, (2010)). In the Drosophila model, maternal Gp93 is sufficient to support embryogenesis in Gp93 homozygous null embryos. In the absence of zygotic expression of Gp93, however, larvae display a pronounced growth defect, commensurate with disrupted gut epithelial morphology, decreased gut nutrient uptake, and marked aberrations in copper cell structure and function. As a consequence, loss of Gp93 expression is larval lethal in Drosophila.
To determine the effects of compound 2 on Drosophila larval growth, first instar wild type (w1118) larvae were placed onto fly food supplemented with either no supplement (A), 0.1% (B), 0.3% (C), or 0.5% (D) DMSO (vehicle controls) or fly food supplemented with 250 μg/ml (E), 500 μg/ml (F), 750 μg/ml (G) or 1 mg/ml (H) compound 2. […] In parallel experiments, larval gut tissue was obtained from each of the feeding conditions and gut epithelial morphology evaluated by fluorescence microscopy. […] Pharmacokinetic studies of compound absorption and metabolism may provide addition insights into this partial phenotypic behavior.

C2C12 cells = assay: C2C12 cell viability, XTT assay; conditions: C2C12 cells treated as in the IGF-II assay
Method: The viability of cells treated as in A was measured at each of the indicated concentrations by the XTT assay.
C2C12 cells (ATCC, Rockville, Md.) were induced to differentiate either by complete withdrawal of serum or by shifting to medium supplemented with 2% house serum. […] Cell growth was measured with the XTT formazan colorimetric assay (Roche), cells were grown in 3% serum, to limit the background of the assay.

I477N mutant myocilin = I477N mutant myocilin levels in HEK iI477N cells, Western blot; format: cell-based, human; conditions: for effect on I477N mutant myocilin levels: 24 hours, indicated concentrations
Method: (§2) FIGS. 16A-E are a series of images depicting inhibition of the Hsp90 chaperone complex reduces the levels of the disease-causing I477N myocilin. Western blot of lysates from HEK iI477N cells treated with the indicated concentrations of the pan Hsp90/Grp94 inhibitors 17-AAG (A) and celastrol (B) for 24 hours. (C) Western blot of lysates from HEK cells conditionally over-expressing I477N myocilin that were treated with 7.5 μM of 17-AAG or vehicle (Veh) and harvested at indicated time points. (D) Dot blot of the cell culture media of HEK iWT cells that were treated with the indicated concentration of 17AAG. (E) Western blot of lysates from HEK iI477N cells and treated with indicated concentrations of a Grp94 selective inhibitor for 24 hours.
A well-established Human Embryonic Kidney (HEK) cell model that conditionally overexpresses wildtype (iWT) or I477N mutant myocilin (iI477N) was used in these studies. (Joe M K & Tomarev S I (2010) Expression of myocilin mutants sensitizes cells to oxidative stress-induced apoptosis: implication for glaucoma pathogenesis. Am J Pathol 176(6):2880-2890) In this inducible and stable cell line, wildtype or I477N myocilin harbors a Flag-tag to ease downstream detection. The inventors confirmed wildtype myocilin secretion and I477N intracellular retention using dot blot analysis of the cell culture media or Western blot of the lysates, respectively (FIG. 10A). The inventors further corroborated ER retention of I477N myocilin by immunofluorescence co-localization (FIG. 10B).
(§3) Small-molecule inhibition of Hsp90, including Grp94, is in clinical development for a number of diseases, and since Grp94 sequesters mutant myocilin from ERAD and Grp94 knockdown enables efficient clearance, the effects of Hsp90 inhibitors were tested. […] 17AAG facilitated reductions in I477N myocilin as soon as 3 hours after treatment (FIG. 16C). As expected, levels of wildtype myocilin were unaffected by 17-AAG, even at a very high dose (FIG. 16D). […] (Rousaki A, et al. (2011) Allosteric Drugs: The Interaction of Antitumor Compound MKT-077 with Human Hsp70 Chaperones. J Mol Biol 411(3):614-632)
Cells were plated and grown as previously described. […] Inducible cells were treated with […] of Tetracycline to induce myocilin expression, 24 hours prior to transfection. SiRNA transfections were performed with Silentfect reagent (BioRad). DNA Transfections were performed with Lipofectamine 2000 (Invitrogen) for 48 hours. The cells were harvested in Mammalian Protein Extraction Reagent (M-PER) buffer (Pierce) containing 1× protease inhibitor mixture (Calbiochem), 100 mM phenylmethylsulfonyl fluoride, and 1× phosphatase inhibitor II and III cocktails (Sigma).
Cells were treated with Grp94 inhibitor and Hsp70/Grp78 inhibitor for 24 hours. Proteasomal inhibition was achieved by treating cells with 0.6 uM and 0.8 uM of epoxomicin.
Western blot and coimmunoprecipitation analyses were performed as previously described. (Abisambra J F, et al. (2012) DnaJA1 Antagonizes Constitutive Hsp70-Mediated Stabilization of Tau. J Mol Biol) Protein samples were prepared using 2× Laemmli sample buffer (Bio-Rad). Samples were boiled for 5-10 min and then loaded onto a 10 well, 10% Tris-glycine gels (Invitrogen) or 18-well, 10% criterion gels (Bio-Rad). The gels were transferred onto PVDF membranes (Millipore) and then blocked for 1 hr at room temperature with 7% milk. […]

wildtype myocilin = assay: Wildtype myocilin in HEK iWT cells, dot blot of media; format: cell-based, human; conditions: even at a very high dose
Method: as §2
as §3, with “411(3):614-632) […]” for “411(3):614-632)”

HeLa cells = assay: HeLa cell survival, XTT assay (GRP94-sufficient or -deficient cells); format: cell-based; conditions: Homo sapiens, 48 hrs, regardless of the presence of GRP94, read-out: IC50 for HeLa cell viability
Method: as §1
Similar results were obtained with other cell lines (e.g. C2C12 in FIG. 6).

[2] = system: full-length Grp94 versus yHsp82; conditions: cited from earlier work

With `COC(=O)c1c(O)cc(O)c(Cl)c1CCc1nccn1Cc1ccccc1` [Compound 2] the “concentration up to which no degradation of Raf or Akt (cytoplasmic client proteins) is induced” value ([1]; HEK293 cells, 24 h) was 100 µM, the “induction of HSP70” value ([1]; compound 2 at 100 μM, GDA positive control 500 nM, HEK293) was “induction of HSP70” and the “concentration above which BiP expression is induced” value (BiP expression) was “above 200 μM”. The “up-regulation of BiP” value (BiP expression; 0-75 μM) was “did not lead to up-regulation of BiP”, the “effect on Akt at BiP-inducing concentrations” value (BiP expression; above 200 μM) was “destabilized Akt” and the “reduction of IGF-II secretion” value (IGF-II secretion) was “Approximately 60%”. For the same compound, the “effect on Drosophila larval growth” value (Drosophila larvae (Gp93)) was “dramatic growth phenotype”, the “effect on Drosophila larval growth” value (Drosophila larvae (Gp93); listed as compound 2) was “clearly stunted the growth of drosophila larvae in a dose-dependent manner” and the “effects on copper cell structure (gut epithelial morphology)” value (Drosophila larvae (Gp93); same feeding conditions, data not shown) was “No grossly discernible effects”. The “effect on cell viability” value (C2C12 cells) was “little effect on cell viability”.

In the case of `C=CCNC1=C2C[C@@H](C)C[C@H](OC)[C@H](O)[C@@H](C)/C=C(\C)[C@H](OC(N)=O)[C@@H](OC)/C=C\C=C(/C)C(=O)NC(=CC1=O)C2=O` [Compound 17-AAG], the “time after treatment at which reductions in I477N myocilin are seen” value (I477N mutant myocilin; 7.5 μM) is reported as 3 h, the “effect on I477N mutant myocilin levels” value (I477N mutant myocilin) is reported as “dose-dependent reductions” and the “up-regulation of BiP” value (BiP expression; 25 μM, data not shown) is reported as “did cause BiP up-regulation”. For the same compound, the “levels of wildtype myocilin” value (wildtype myocilin) was “unaffected”.

With `C[C@@H]1C[C@H]2O[C@@H]2/C=C\C=C\C(=O)Cc2c(Cl)c(O)cc(O)c2C(=O)O1` [RDC, radicicol] the “up-regulation of BiP” value (BiP expression; 10 μM) was “did cause BiP up-regulation” and the IC50 (HeLa cells) was 8 µM.

In the case of `CCn1c(=Cc2cccc[n+]2C)sc(=C2Sc3ccccc3N2C)c1=O.[Cl-]` [YM1], the “effect on I477N mutant myocilin levels” value (I477N mutant myocilin) is reported as “did not reduce I477N”.

In the case of `CC[C@H](C)[C@H](NC(=O)[C@H]([C@@H](C)CC)N(C)C(C)=O)C(=O)N[C@H](C(=O)N[C@@H](CC(C)C)C(=O)[C@@]1(C)CO1)[C@@H](C)O` [epoxomicin], the “effect on clearance of I477N myocilin” value (I477N mutant myocilin; Grp94 knockdown) is reported as “no effect on clearance” and the “effect on clearance of I477N myocilin” value (I477N mutant myocilin; control siRNA conditions) is reported as “blocked the clearance of I477N myocilin”.

For radamide [RDA], the “binding affinity for full-length Grp94 relative to yHsp82” value [2] is listed as “approximately 2 fold”.
